Source: paper PMC10985906, “Anticholinesterase activities of novel isoindolin-1,3-dione-based acetohydrazide derivatives: design, synthesis, biological evaluation, molecular dynamic study” (BMC Chemistry, 2024)
Where two headings read alike, the source gives them in different places.

What was measured:
AChE [1] = biological target: T1, AChE (Homo sapiens, UniProt P22303); experiment: biochemical; details: mean ± SD; modified Ellman, 37 °C, pH 7.4
BChE [2] = biological target: T2, BChE (Homo sapiens, UniProt P06276); experiment: biochemical; details: mean ± SD; modified Ellman, 37 °C, pH 7.4
T2 sequence (P06276 29-602): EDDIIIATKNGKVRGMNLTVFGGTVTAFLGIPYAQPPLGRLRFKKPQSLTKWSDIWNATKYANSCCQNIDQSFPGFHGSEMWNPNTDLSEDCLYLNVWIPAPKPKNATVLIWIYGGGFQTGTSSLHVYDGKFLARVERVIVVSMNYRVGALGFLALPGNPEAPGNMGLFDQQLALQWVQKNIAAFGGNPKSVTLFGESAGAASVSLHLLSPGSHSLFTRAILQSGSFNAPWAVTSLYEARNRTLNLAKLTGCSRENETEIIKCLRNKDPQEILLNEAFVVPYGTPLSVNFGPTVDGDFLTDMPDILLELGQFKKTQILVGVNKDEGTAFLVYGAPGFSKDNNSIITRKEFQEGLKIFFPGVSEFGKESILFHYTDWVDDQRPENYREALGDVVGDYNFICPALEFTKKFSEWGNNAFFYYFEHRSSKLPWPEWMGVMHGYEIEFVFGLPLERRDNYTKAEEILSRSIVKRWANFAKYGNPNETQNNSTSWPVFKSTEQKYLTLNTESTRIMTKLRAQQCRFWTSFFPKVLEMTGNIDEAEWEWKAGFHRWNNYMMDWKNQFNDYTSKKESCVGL

Aß-aggregation = details: at 10 µM; previously reported; cited from earlier work
hBACE-1 = details: at 50 µM; previously reported; cited from earlier work
BChE [3] = biological target: T2, BChE; details: at 10 µM; previously reported; cited from earlier work
AChE [4] = biological target: T1, AChE; experiment: Enzyme kinetics against AChE (Lineweaver–Burk); type: biochemical
Experimental: (§1) The ChE inhibition reactions were determined by Ellman’s assay at different concentrations of 8a and 8g. […]. The inhibition constant Ki was calculated by the plot of slopes versus the corresponding concentrations of the inhibitors.

BChE [5] = biological target: T2, BChE; experiment: Enzyme kinetics against BChE (Lineweaver–Burk); type: biochemical
Experimental: as §1

BChE [6] = biological target: T2, BChE; details: previously reported; cited from earlier work
[7] = secondary plot of Lineweaver–Burk plots

T1 sequence (P22303 32-614): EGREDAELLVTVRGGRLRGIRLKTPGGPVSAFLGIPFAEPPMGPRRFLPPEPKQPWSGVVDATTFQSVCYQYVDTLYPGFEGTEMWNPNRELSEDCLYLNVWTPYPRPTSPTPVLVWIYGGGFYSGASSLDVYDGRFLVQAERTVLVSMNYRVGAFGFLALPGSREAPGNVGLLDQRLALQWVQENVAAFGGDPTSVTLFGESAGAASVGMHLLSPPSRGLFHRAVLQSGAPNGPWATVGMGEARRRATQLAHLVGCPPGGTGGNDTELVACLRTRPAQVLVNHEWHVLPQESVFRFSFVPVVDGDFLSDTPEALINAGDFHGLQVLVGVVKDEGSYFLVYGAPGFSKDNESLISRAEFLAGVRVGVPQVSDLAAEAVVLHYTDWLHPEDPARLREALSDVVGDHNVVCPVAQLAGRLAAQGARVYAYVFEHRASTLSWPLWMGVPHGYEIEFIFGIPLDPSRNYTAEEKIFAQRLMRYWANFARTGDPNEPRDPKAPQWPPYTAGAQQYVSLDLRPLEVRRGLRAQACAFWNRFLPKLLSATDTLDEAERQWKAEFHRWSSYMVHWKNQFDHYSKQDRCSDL

Compound | IC50 (AChE [1]) [nM] | IC50 (BChE [2]) [nM] | also measured
CCN(CC(=O)NN=Cc1cc([N+](=O)[O-])ccc1OCCCN1C(=O)c2ccccc2C1=O)Cc1ccccc1 [Compound 8c, 2-(benzyl(ethyl)amino)-Nʹ-(2-(3-(1,3-dioxoisoindolin-2-yl)propoxy)-5-nitrobenzylidene)acetohydrazide] | 160 ± 40 | 21800 ± 1300 | 
2-(benzylamino-2-hydroxyalkyl)isoindoline-1,3-dione |  |  | Aß-aggregation inhibition (Aß-aggregation): 24.9%; hBACE-1 inhibition (hBACE-1): 43.7%; BChE inhibition (BChE [3]): 14.1% ± 5.8
CN(CC(=O)NN=Cc1ccccc1OCCCN1C(=O)c2ccccc2C1=O)Cc1ccccc1 [Compound 8a, 2-(benzyl(methyl)amino)-Nʹ-(2-(3-(1,3-dioxoisoindolin-2-yl)propoxy)benzylidene)acetohydrazide] | 110 ± 50 | 30200 ± 2800 | mode of inhibition against AChE (AChE [4]; Lineweaver–Burk plot): competitive; Ki (AChE [4]; [7]): 88.6 nM
CCN(CC(=O)NN=Cc1ccc(OCCCN2C(=O)c3ccccc3C2=O)cc1)Cc1ccccc1 [Compound 8g, 2-(benzyl(ethyl)amino)-Nʹ-(4-(3-(1,3-dioxoisoindolin-2-yl)propoxy)benzylidene)acetohydrazide] | 860 ± 20 | 5700 ± 200 | mode of inhibition against BChE (BChE [5]; Lineweaver–Burk plot): competitive; Ki (BChE [5]; [7]): 3650 nM
Oc1ccc(/C=C/c2cc(O)cc(O)c2)cc1 [resveratrol] |  |  | Aß-aggregation inhibition (Aß-aggregation): 78.5% ± 5.2
CCN(CC(=O)NN=Cc1ccc(OC)c(OCCCN2C(=O)c3ccccc3C2=O)c1)Cc1ccccc1 [Compound 8e, 2-(benzyl(ethyl)amino)-Nʹ-(3-(3-(1,3-dioxoisoindolin-2-yl)propoxy)-4-methoxybenzylidene)acetohydrazide] | 210 ± 30 | 14700 ± 200 | 
CCN(CC(=O)NN=Cc1cccc(OCCCN2C(=O)c3ccccc3C2=O)c1)Cc1ccccc1 [Compound 8d, 2-(benzyl(ethyl)amino)-N'-(3-(3-(1,3-dioxoisoindolin-2-yl)propoxy)benzylidene)acetohydrazide] | 160 ± 30 | 11800 ± 500 | 
CCN(CC(=O)NN=Cc1ccc(OCCCN2C(=O)c3ccccc3C2=O)c(OC)c1)Cc1ccccc1 [Compound 8h, 2-(benzyl(ethyl)amino)-Nʹ-(4-(3-(1,3-dioxoisoindolin-2-yl)propoxy)-3-methoxybenzylidene)acetohydrazide] | 170 ± 60 | 13200 ± 1400 | 
CN(C)C(=O)Oc1cccc([N+](C)(C)C)c1 [neostigmine] |  |  | IC50 (BChE [6]): 84 nM
CCN(CC(=O)NN=Cc1ccccc1OCCCN1C(=O)c2ccccc2C1=O)Cc1ccccc1 [Compound 8b, 2-(benzyl(ethyl)amino)-Nʹ-(2-(3-(1,3-dioxoisoindolin-2-yl)propoxy)benzylidene)acetohydrazide] | 180 ± 10 | 26800 ± 800 | 
CN(CC(=O)NN=Cc1ccc(OCCCN2C(=O)c3ccccc3C2=O)cc1)Cc1ccccc1 [Compound 8f, 2-(benzyl(methyl)amino)-Nʹ-(4-(3-(1,3-dioxoisoindolin-2-yl)propoxy)benzylidene)acetohydrazide] | 320 ± 20 | 15700 ± 1200 | 
